Experimental data taken from the NIST ThermoML archive (doi:10.1007/s10765-005-8591-6).
Numbers after ± are expanded uncertainties.

Test: xn = mol fraction of the nth substance listed
Conditions: Fluid (supercritical or subcritical phases), Constant-volume piezometry

For `FC(F)C(F)(F)F` [pentafluoroethane] + FCF, the mass density (258.15 K, 2177 kPa, x2 = 0.3004) was 1342.88 ± 0.84 kg/m3, the mass density (258.16 K, 1554.4 kPa, x2 = 0.4995) was 1294.18 ± 0.81 kg/m3 and the mass density (258.16 K, 4595.6 kPa, x2 = 0) was 1403.78 ± 0.63 kg/m3. The mass density (259.14 K, 2658.3 kPa, x2 = 0.6995) was 1234.39 ± 0.77 kg/m3, the mass density (259.15 K, 2403.7 kPa, x2 = 0.4995) was 1294.07 ± 0.81 kg/m3 and the mass density (259.15 K, 2913.1 kPa, x2 = 0.3004) was 1342.77 ± 0.84 kg/m3. For the same compound, the mass density (261.15 K, 3061.1 kPa, x2 = 0.8997) was 1151.87 ± 0.72 kg/m3, the mass density (261.15 K, 4118.3 kPa, x2 = 0.4995) was 1293.85 ± 0.81 kg/m3 and the mass density (261.15 K, 4474.9 kPa, x2 = 0.3004) was 1342.56 ± 0.84 kg/m3. For the same compound, the mass density (261.15 K, 4516.2 kPa, x2 = 0.6995) was 1234.17 ± 0.77 kg/m3, the mass density (261.15 K, 6579.8 kPa, x2 = 0) was 1403.47 ± 0.63 kg/m3 and the mass density (262.14 K, 4056 kPa, x2 = 0.8997) was 1151.77 ± 0.72 kg/m3. It also gave a mass density (262.14 K, 7284.6 kPa, x2 = 0) of 1403.36 ± 0.63 kg/m3, a mass density (263.15 K, 5058.3 kPa, x2 = 0.8997) of 1151.67 ± 0.72 kg/m3 and a mass density (263.15 K, 5848.5 kPa, x2 = 0.4995) of 1293.64 ± 0.81 kg/m3. The mass density (263.15 K, 6106.3 kPa, x2 = 0.3004) was 1342.34 ± 0.84 kg/m3, the mass density (263.15 K, 6362.9 kPa, x2 = 0.6995) was 1233.97 ± 0.78 kg/m3 and the mass density (264.15 K, 3235.2 kPa, x2 = 0.098) was 1362.36 ± 0.85 kg/m3. The mass density (264.15 K, 6053.5 kPa, x2 = 0.8997) was 1151.57 ± 0.72 kg/m3, the mass density (264.15 K, 7288.1 kPa, x2 = 0.6995) was 1233.88 ± 0.78 kg/m3 and the mass density (265.15 K, 7050.9 kPa, x2 = 0.8997) was 1151.47 ± 0.72 kg/m3. It also gave a mass density (265.15 K, 7767 kPa, x2 = 0.3004) of 1342.13 ± 0.85 kg/m3, a mass density (265.15 K, 8213.6 kPa, x2 = 0.6995) of 1233.78 ± 0.78 kg/m3 and a mass density (265.17 K, 7585.9 kPa, x2 = 0.4995) of 1293.43 ± 0.81 kg/m3. It also gave a mass density (267.15 K, 9040.9 kPa, x2 = 0.8997) of 1151.28 ± 0.73 kg/m3, a mass density (267.15 K, 9274.4 kPa, x2 = 0.4995) of 1293.23 ± 0.82 kg/m3 and a mass density (267.15 K, 10051 kPa, x2 = 0.6995) of 1233.58 ± 0.78 kg/m3. It also gave a mass density (267.16 K, 5301.3 kPa, x2 = 0.098) of 1362.04 ± 0.85 kg/m3, a mass density (267.16 K, 9382.9 kPa, x2 = 0.3004) of 1341.92 ± 0.85 kg/m3 and a mass density (267.16 K, 10809 kPa, x2 = 0) of 1402.84 ± 0.64 kg/m3. For the same compound, the mass density (268.15 K, 10032 kPa, x2 = 0.8997) was 1151.19 ± 0.73 kg/m3, the mass density (268.2 K, 10152 kPa, x2 = 0.4995) was 1293.13 ± 0.82 kg/m3 and the mass density (269.14 K, 10950 kPa, x2 = 0.4995) was 1293.04 ± 0.82 kg/m3. The mass density (269.15 K, 10983 kPa, x2 = 0.3004) was 1341.71 ± 0.85 kg/m3, the mass density (269.15 K, 11894 kPa, x2 = 0.6995) was 1233.38 ± 0.78 kg/m3 and the mass density (269.16 K, 11031 kPa, x2 = 0.8997) was 1151.09 ± 0.73 kg/m3. It also gave a mass density (270.15 K, 7414.4 kPa, x2 = 0.098) of 1361.73 ± 0.86 kg/m3, a mass density (270.19 K, 13003 kPa, x2 = 0) of 1402.53 ± 0.64 kg/m3 and a mass density (271.13 K, 12647 kPa, x2 = 0.4995) of 1292.84 ± 0.82 kg/m3. The mass density (271.15 K, 13008 kPa, x2 = 0.8997) was 1150.92 ± 0.73 kg/m3, the mass density (271.16 K, 13740 kPa, x2 = 0.6995) was 1233.2 ± 0.79 kg/m3 and the mass density (273.08 K, 14311 kPa, x2 = 0.4995) was 1292.65 ± 0.82 kg/m3. The mass density (273.15 K, 9532.7 kPa, x2 = 0.098) was 1361.42 ± 0.86 kg/m3, the mass density (273.15 K, 14255 kPa, x2 = 0.3004) was 1341.32 ± 0.85 kg/m3 and the mass density (273.15 K, 14990 kPa, x2 = 0.8997) was 1150.74 ± 0.73 kg/m3. It also gave a mass density (273.15 K, 15076 kPa, x2 = 0) of 1402.23 ± 0.65 kg/m3, a mass density (273.16 K, 15579 kPa, x2 = 0.6995) of 1233.01 ± 0.79 kg/m3 and a mass density (274.14 K, 15969 kPa, x2 = 0.8997) of 1150.66 ± 0.74 kg/m3. For the same compound, the mass density (274.16 K, 16499 kPa, x2 = 0.6995) was 1232.92 ± 0.79 kg/m3, the mass density (275.13 K, 16066 kPa, x2 = 0.4995) was 1292.46 ± 0.83 kg/m3 and the mass density (275.15 K, 16572 kPa, x2 = 0) was 1402.04 ± 0.65 kg/m3. The mass density (282.15 K, 15978 kPa, x2 = 0.098) was 1360.53 ± 0.87 kg/m3, the mass density (313.13 K, 2217.5 kPa, x2 = 0.3003) was 1050.39 ± 0.66 kg/m3 and the mass density (313.15 K, 2820.6 kPa, x2 = 0.1) was 1097.54 ± 0.69 kg/m3. For the same compound, the mass density (318.14 K, 2959 kPa, x2 = 0.8992) was 900.95 ± 0.57 kg/m3, the mass density (318.15 K, 2921.8 kPa, x2 = 0.6998) was 949.66 ± 0.6 kg/m3 and the mass density (318.15 K, 4528.5 kPa, x2 = 0.1) was 1097.17 ± 0.69 kg/m3. It also gave a mass density (318.18 K, 3901.3 kPa, x2 = 0.3003) of 1050.03 ± 0.66 kg/m3, a mass density (318.21 K, 3341.8 kPa, x2 = 0.4993) of 1000.3 ± 0.63 kg/m3 and a mass density (323.13 K, 5212.3 kPa, x2 = 0.8992) of 900.63 ± 0.57 kg/m3. It also gave a mass density (323.14 K, 4867 kPa, x2 = 0.6998) of 949.34 ± 0.6 kg/m3, a mass density (323.15 K, 5129.3 kPa, x2 = 0.4993) of 999.96 ± 0.63 kg/m3 and a mass density (323.16 K, 5645.9 kPa, x2 = 0.3003) of 1049.68 ± 0.67 kg/m3. It also gave a mass density (323.16 K, 6252.9 kPa, x2 = 0.1) of 1096.79 ± 0.7 kg/m3, a mass density (328.14 K, 6839.9 kPa, x2 = 0.6998) of 949.01 ± 0.61 kg/m3 and a mass density (328.15 K, 7408.9 kPa, x2 = 0.3003) of 1049.33 ± 0.67 kg/m3. For the same compound, the mass density (328.15 K, 7986 kPa, x2 = 0.1) was 1096.43 ± 0.7 kg/m3, the mass density (328.16 K, 6969.7 kPa, x2 = 0.4993) was 999.62 ± 0.64 kg/m3 and the mass density (328.16 K, 7509.2 kPa, x2 = 0.8992) was 900.31 ± 0.58 kg/m3. For the same compound, the mass density (333.13 K, 8834 kPa, x2 = 0.6998) was 948.69 ± 0.61 kg/m3, the mass density (333.13 K, 9793.4 kPa, x2 = 0.8992) was 900.01 ± 0.58 kg/m3 and the mass density (333.14 K, 9188.4 kPa, x2 = 0.3003) was 1048.98 ± 0.68 kg/m3. The mass density (333.15 K, 8814.5 kPa, x2 = 0.4993) was 999.29 ± 0.64 kg/m3, the mass density (333.17 K, 9741.9 kPa, x2 = 0.1) was 1096.06 ± 0.71 kg/m3 and the mass density (338.12 K, 12100 kPa, x2 = 0.8992) was 899.7 ± 0.59 kg/m3. It also gave a mass density (338.13 K, 10843 kPa, x2 = 0.6998) of 948.37 ± 0.61 kg/m3, a mass density (338.13 K, 10979 kPa, x2 = 0.3003) of 1048.63 ± 0.68 kg/m3 and a mass density (338.14 K, 11489 kPa, x2 = 0.1) of 1095.7 ± 0.71 kg/m3. The mass density (338.19 K, 10690 kPa, x2 = 0.4993) was 998.95 ± 0.65 kg/m3, the mass density (343.12 K, 12860 kPa, x2 = 0.6998) was 948.05 ± 0.62 kg/m3 and the mass density (343.12 K, 14419 kPa, x2 = 0.8992) was 899.4 ± 0.59 kg/m3. For the same compound, the mass density (343.13 K, 12772 kPa, x2 = 0.3003) was 1048.29 ± 0.69 kg/m3, the mass density (343.13 K, 13247 kPa, x2 = 0.1) was 1095.35 ± 0.72 kg/m3 and the mass density (343.18 K, 12550 kPa, x2 = 0.4993) was 998.62 ± 0.65 kg/m3. It also gave a mass density (348.12 K, 14887 kPa, x2 = 0.6998) of 947.74 ± 0.63 kg/m3, a mass density (348.13 K, 16746 kPa, x2 = 0.8992) of 899.1 ± 0.6 kg/m3 and a mass density (348.16 K, 14423 kPa, x2 = 0.4993) of 998.3 ± 0.66 kg/m3. The mass density (348.16 K, 15022 kPa, x2 = 0.1) was 1094.99 ± 0.72 kg/m3, the mass density (348.17 K, 14592 kPa, x2 = 0.3003) was 1047.95 ± 0.69 kg/m3 and the mass density (353.11 K, 16917 kPa, x2 = 0.6998) was 947.43 ± 0.63 kg/m3. It also gave a mass density (353.13 K, 16290 kPa, x2 = 0.4993) of 997.98 ± 0.66 kg/m3, a mass density (353.14 K, 16386 kPa, x2 = 0.3003) of 1047.61 ± 0.7 kg/m3 and a mass density (353.14 K, 16782 kPa, x2 = 0.1) of 1094.64 ± 0.73 kg/m3. For the same compound, the mass density (354.13 K, 16744 kPa, x2 = 0.3003) was 1047.54 ± 0.7 kg/m3 and the mass density (354.15 K, 16672 kPa, x2 = 0.4993) was 997.91 ± 0.67 kg/m3.
